Read-outs that look alike come from different tables or passages of the source.

The target of the test is T1, rhJAK3 (Homo sapiens, UniProt P52333).
T1 construct: recombinant purified GST-tagged catalytic domain for each enzyme; purchased Invitrogen PV3855
As to the kind of experiment: JAK Biochemical HTRF Assay (JAK3). The settings on record: recombinant purified GST-tagged catalytic domain, HTRF format, [ATP] 1.7 μM.

T1 sequence (P52333 822-1111 limits assumed): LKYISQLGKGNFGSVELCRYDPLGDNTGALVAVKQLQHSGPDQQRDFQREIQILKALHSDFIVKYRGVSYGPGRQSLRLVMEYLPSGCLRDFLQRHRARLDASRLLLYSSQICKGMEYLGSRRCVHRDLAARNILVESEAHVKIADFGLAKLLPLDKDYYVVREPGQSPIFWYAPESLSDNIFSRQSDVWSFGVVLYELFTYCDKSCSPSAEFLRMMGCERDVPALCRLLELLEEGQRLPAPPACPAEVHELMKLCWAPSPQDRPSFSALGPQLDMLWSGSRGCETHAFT

`CC(c1cccc(-c2cnc3[nH]cc(-c4cncc(N[C@H](C)C(=O)NCC(F)(F)F)n4)c3c2)c1)N1CCCC1` (stereo partly drawn) [Example 15-11, N^2-(6-{5-[3-(1-pyrrolidin-1-ylethyl)-phenyl]-1H-pyrrolo[2,3-b]pyridin-3-yl}pyrazin-2-yl)-N-(2,2,2-trifluoroethyl)-D-alaninamide]: for the setting “read-out: JAK3 IC50”, the IC50 was ≤ 1 nM. Consider `C[C@@H](Nc1cncc(-c2c[nH]c3ncc(-c4cccc(CN5CCOCC5)c4)cc23)n1)C(=O)NCC(F)(F)F` [Example 15-12, N^2-(6-{5-[3-(morpholin-4-yl-methyl)phenyl]-1H-pyrrolo[2,3-b]-pyridin-3-yl}pyrazin-2-yl)-N-(2,2,2-trifluoroethyl)-D-alaninamide], for which the IC50 (read-out: JAK3 IC50) is ≤ 1 nM. In the case of `C[C@@H](Nc1cncc(-c2c[nH]c3ncc(-c4ccccc4CN(C)C)cc23)n1)C(=O)NCC(F)(F)F` [Example 15-13, N^2-[6-(5-{2-[(dimethylamino)methyl]-phenyl}-1H-pyrrolo(2,3-b]pyridin-3-yl)pyrazin-2-yl]-N-(2,2,2-trifluoroethyl)-D-alaninamide], the IC50 (read-out: JAK3 IC50) was in the range of 1 to 10 nM. For `C[C@@H](Nc1cncc(-c2c[nH]c3ncc(-c4ccccc4OC(F)(F)F)cc23)n1)C(=O)NCC(F)(F)F` [Example 15-14, N-(2,2,2-trifluoroethyl)-N^2-(6-{5-[2-(trifluoromethoxy)phenyl]-1H-pyrrolo[2,3-b]pyridin-3-yl}pyrazin-2-yl)-D-alaninamide], where the note is “read-out: JAK3 IC50”, the IC50 lay within 10 to 100 nM.

For the compound `C[C@@H](Nc1cncc(-c2c[nH]c3ncc(C4=CCOCC4)cc23)n1)C(=O)NCC(F)(F)F` [Example 15-15, N^2-{6-[5-(3,6-dihydro-2H-pyran-4-yl)-1H-pyrrolo[2,3-b]pyridin-3-yl]pyrazin-2-yl}-N-(2,2,2-trifluoroethyl)-D-alaninamide], the IC50 (read-out: JAK3 IC50) was ≤ 1 nM. In the case of `C[C@@H](Nc1cncc(-c2c[nH]c3ncc(C4=CCCOC4)cc23)n1)C(=O)NCC(F)(F)F` [Example 15-16, N^2-{6-[5-(5,6-dihydro-2H-pyran-3-yl)-1H-pyrrolo[2,3-b]pyridin-3-yl]pyrazin-2-yl}-N-(2,2,2-trifluoroethyl)-D-alaninamide], the IC50 (read-out: JAK3 IC50) is ≤ 1 nM. For the compound `C[C@@H](Nc1cncc(-c2c[nH]c3ncc(-c4ccc(N5CCCC5)cc4)cc23)n1)C(=O)NCC(F)(F)F` [Example 15-17, N^2-{6-[5-(4-pyrrolidin-1-ylphenyl)-1H-pyrrolo[2,3-b]pyridin-3-yl]pyrazin-2-yl}-N-(2,2,2-trifluoroethyl)-D-alaninamide], for the setting “read-out: JAK3 IC50”, the IC50 was ≤ 1 nM. On the same count and under the same terms, next, `COc1cncc(-c2cnc3[nH]cc(-c4cncc(N[C@H](C)C(=O)NCC(F)(F)F)n4)c3c2)c1` [Example 15-18, N^2-{6-[5-(5-methoxypyridin-3-yl)-1H-pyrrolo[2,3-b]pyridin-3-yl]pyrazin-2-yl}-N-(2,2,2-trifluoroethyl)-D-alaninamide]: ≤ 1 nM. Turning to `C[C@@H](Nc1cncc(-c2c[nH]c3ncc(-c4cncc(C#N)c4)cc23)n1)C(=O)NCC(F)(F)F` [Example 15-19, N^2-{6-[5-(5-cyanopyridin-3-yl)-1H-pyrrolo[2,3-b]pyridin-3-yl]pyrazin-2-yl}-N-(2,2,2-trifluoroethyl)-D-alaninamide], the IC50 (read-out: JAK3 IC50) is ≤ 1 nM. As to `C[C@@H](Nc1cncc(-c2c[nH]c3ncc(-c4cccnc4F)cc23)n1)C(=O)NCC(F)(F)F` [Example 15-20, N^2-{6-[5-(2-fluoropyridin-3-yl)-1H-pyrrolo[2,3-b]pyridin-3-yl)pyrazin-2-yl}-N-(2,2,2-trifluoroethyl)-D-alaninamide], the IC50 (read-out: JAK3 IC50) is ≤ 1 nM. The same measure, in the same setting: next, `CC(C)(Nc1cncc(-c2c[nH]c3ncc(C4CC4)cc23)n1)C(=O)NCC(F)(F)F` [Example 15-21, N2-[6-(5-cyclopropyl-1H-pyrrolo[2,3-b]pyridin-3-yl)pyrazin-2-yl]-2-methyl-N-(2,2,2-trifluoroethyl)alaninamide]: ≤ 1 nM; `CC(C)[C@@H](Nc1cncc(-c2c[nH]c3ncc(F)cc23)n1)C(=O)NCC(F)(F)F` [Example 16-1, N^2-[6-(5-fluoro-1H-pyrrolo[2,3-b]pyridin-3-yl)pyrazin-2-yl]-N-(2,2,2-trifluoroethyl)-D-valinamide]: 1 to 10 nM; `CC(C)[C@@H](Nc1cncc(-c2c[nH]c3ncc(C#N)cc23)n1)C(=O)NCC(F)(F)F` [Example 16-2, N^2-[6-(5-cyano-1H-pyrrolo[2,3-b]pyridin-3-yl)pyrazin-2-yl]-N-(2,2,2-trifluoroethyl)-D-valinamide]: ≤ 1 nM.

For `COC(=O)c1cnc2[nH]cc(-c3cncc(N[C@@H](C(=O)NCC(F)(F)F)C(C)C)n3)c2c1` [Example 16-3, Methyl 3-[6-({(2R)-3-methyl-1-oxo-1-[(2,2,2-trifluoroethyl)amino]butan-2-yl}-amino)pyrazin-2-yl]-1H-pyrrolo[2,3-b]-pyridine-5-carboxylate], the IC50 (read-out: JAK3 IC50) fell in the range of 1 to 10 nM. With `CC(C)(Nc1cncc(-c2c[nH]c3ncc(F)cc23)n1)C(=O)NCC(F)(F)F` [Example 16-5, N^2-[6-(5-fluoro-1H-pyrrolo[2,3-b]pyridin-3-yl)pyrazin-2-yl]-2-methyl-N-(2,2,2-trifluoroethyl)alaninamide], for the setting “read-out: JAK3 IC50”, the IC50 was ≤ 1 nM. Regarding “(2R)-1-[6-(5-chloro-1H-pyrrolo[2,3-b]- pyridin-3-yl)pyrazin-2-yl]-N-(2,2,2- trifluoroethyl)piperazine-2-carboxamide [Example 4-1]”, the IC50 (read-out: rhJAK3 IC50) was 10 to 100 nM.

The values above are taken from patent publication US20130040933A1, “AZAINDOLES AS JANUS KINASE INHIBITORS” (priority 2010, published 2013).
